Data taken from PubChem BioAssay (NCI).
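96-well plates; 48 h exposure; 5 concentrations. Endpoints by linear interpolation between flanking doses. Not reached: highest tested concentration assigned. GI50 marks 50% less growth. The concentration for full growth arrest is given as TGI.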

Tests used:
Test in all cases: NCI-60 cell line screen, 48 h
786-0 renal = test system: 786-0 renal
A498 renal = test system: A498 renal
ACHN renal = test system: ACHN renal
BT-549 breast = test system: BT-549 breast
CAKI-1 renal = test system: CAKI-1 renal
COLO 205 colon = test system: COLO 205 colon
DU-145 prostate = test system: DU-145 prostate
HCC-2998 colon = test system: HCC-2998 colon
HCT-116 colon = test system: HCT-116 colon
HCT-15 colon = test system: HCT-15 colon
HL-60(TB) leukemia = test system: HL-60(TB) leukemia
HOP-62 NSCLC = test system: HOP-62 NSCLC
HOP-92 NSCLC = test system: HOP-92 NSCLC
HS 578T breast = test system: HS 578T breast
HT29 colon = test system: HT29 colon
IGROV1 ovarian = test system: IGROV1 ovarian
K-562 leukemia = test system: K-562 leukemia
KM12 colon = test system: KM12 colon
LOX IMVI melanoma = test system: LOX IMVI melanoma
M14 melanoma = test system: M14 melanoma
MALME-3M melanoma = test system: MALME-3M melanoma
MCF7 breast = test system: MCF7 breast
MDA-MB-231 breast = test system: MDA-MB-231 breast
MDA-MB-435 = test system: MDA-MB-435
MOLT-4 leukemia = test system: MOLT-4 leukemia
NCI-H226 lung = test system: NCI-H226 lung
NCI-H23 lung = test system: NCI-H23 lung
NCI-H460 lung = test system: NCI-H460 lung
NCI/ADR-RES ovarian = test system: NCI/ADR-RES ovarian
OVCAR-3 ovarian = test system: OVCAR-3 ovarian
OVCAR-4 ovarian = test system: OVCAR-4 ovarian
OVCAR-5 ovarian = test system: OVCAR-5 ovarian
OVCAR-8 ovarian = test system: OVCAR-8 ovarian
PC-3 prostate = test system: PC-3 prostate
RPMI-8226 leukemia = test system: RPMI-8226 leukemia
RXF 393 renal = test system: RXF 393 renal
SF-268 CNS = test system: SF-268 CNS
SF-295 CNS = test system: SF-295 CNS
SF-539 CNS = test system: SF-539 CNS
SK-MEL-2 melanoma = test system: SK-MEL-2 melanoma
SK-MEL-28 melanoma = test system: SK-MEL-28 melanoma
SK-MEL-5 melanoma = test system: SK-MEL-5 melanoma
SK-OV-3 ovarian = test system: SK-OV-3 ovarian
SN12C renal = test system: SN12C renal
SNB-19 CNS = test system: SNB-19 CNS
SNB-75 CNS = test system: SNB-75 CNS
SR leukemia = test system: SR leukemia
SW-620 colon = test system: SW-620 colon
T-47D breast = test system: T-47D breast
TK-10 renal = test system: TK-10 renal
U251 CNS = test system: U251 CNS
UACC-62 melanoma = test system: UACC-62 melanoma
UO-31 renal = test system: UO-31 renal
A549 NSCLC = test system: A549 NSCLC
EKVX NSCLC = test system: EKVX NSCLC
NCI-H522 lung = test system: NCI-H522 lung
UACC-257 melanoma = test system: UACC-257 melanoma

What does the source list for `CCCC(c1nnnn1C1CCCCC1)N1CCN(C(=O)c2ccco2)CC1` (stereo unspecified)?
GI50 (786-0 renal): > 100 µM; TGI (786-0 renal): > 100 µM; GI50 (A498 renal): > 100 µM; TGI (A498 renal): > 100 µM; GI50 (ACHN renal): > 100 µM; TGI (ACHN renal): > 100 µM; GI50 (BT-549 breast): > 100 µM; TGI (BT-549 breast): > 100 µM; GI50 (CAKI-1 renal): > 100 µM; TGI (CAKI-1 renal): > 100 µM; GI50 (COLO 205 colon): > 100 µM; TGI (COLO 205 colon): > 100 µM; GI50 (DU-145 prostate): > 100 µM; TGI (DU-145 prostate): > 100 µM; GI50 (HCC-2998 colon): > 100 µM; TGI (HCC-2998 colon): > 100 µM; GI50 (HCT-116 colon): > 100 µM; TGI (HCT-116 colon): > 100 µM; GI50 (HCT-15 colon): > 100 µM; TGI (HCT-15 colon): > 100 µM; GI50 (HL-60(TB) leukemia): > 100 µM; TGI (HL-60(TB) leukemia): > 100 µM; GI50 (HOP-62 NSCLC): > 100 µM; TGI (HOP-62 NSCLC): > 100 µM; GI50 (HOP-92 NSCLC): > 100 µM; TGI (HOP-92 NSCLC): > 100 µM; GI50 (HS 578T breast): > 100 µM; TGI (HS 578T breast): > 100 µM; GI50 (HT29 colon): > 100 µM; TGI (HT29 colon): > 100 µM; GI50 (IGROV1 ovarian): > 100 µM; TGI (IGROV1 ovarian): > 100 µM; GI50 (K-562 leukemia): > 100 µM; TGI (K-562 leukemia): > 100 µM; GI50 (KM12 colon): > 100 µM; TGI (KM12 colon): > 100 µM; GI50 (LOX IMVI melanoma): > 100 µM; TGI (LOX IMVI melanoma): > 100 µM; GI50 (M14 melanoma): > 100 µM; TGI (M14 melanoma): > 100 µM; GI50 (MALME-3M melanoma): > 100 µM; TGI (MALME-3M melanoma): > 100 µM; GI50 (MCF7 breast): > 100 µM; TGI (MCF7 breast): > 100 µM; GI50 (MDA-MB-231 breast): > 100 µM; TGI (MDA-MB-231 breast): > 100 µM; GI50 (MDA-MB-435): > 100 µM; TGI (MDA-MB-435): > 100 µM; GI50 (MOLT-4 leukemia): > 100 µM; TGI (MOLT-4 leukemia): > 100 µM; GI50 (NCI-H226 lung): > 100 µM; TGI (NCI-H226 lung): > 100 µM; GI50 (NCI-H23 lung): > 100 µM; TGI (NCI-H23 lung): > 100 µM; GI50 (NCI-H460 lung): > 100 µM; TGI (NCI-H460 lung): > 100 µM; GI50 (NCI/ADR-RES ovarian): > 100 µM; TGI (NCI/ADR-RES ovarian): > 100 µM; GI50 (OVCAR-3 ovarian): > 100 µM; TGI (OVCAR-3 ovarian): > 100 µM; GI50 (OVCAR-4 ovarian): > 100 µM; TGI (OVCAR-4 ovarian): > 100 µM; GI50 (OVCAR-5 ovarian): > 100 µM; TGI (OVCAR-5 ovarian): > 100 µM; GI50 (OVCAR-8 ovarian): > 100 µM; TGI (OVCAR-8 ovarian): > 100 µM; GI50 (PC-3 prostate): > 100 µM; TGI (PC-3 prostate): > 100 µM; GI50 (RPMI-8226 leukemia): > 100 µM; TGI (RPMI-8226 leukemia): > 100 µM; GI50 (RXF 393 renal): > 100 µM; TGI (RXF 393 renal): > 100 µM; GI50 (SF-268 CNS): > 100 µM; TGI (SF-268 CNS): > 100 µM; GI50 (SF-295 CNS): > 100 µM; TGI (SF-295 CNS): > 100 µM; GI50 (SF-539 CNS): > 100 µM; TGI (SF-539 CNS): > 100 µM; GI50 (SK-MEL-2 melanoma): > 100 µM; TGI (SK-MEL-2 melanoma): > 100 µM; GI50 (SK-MEL-28 melanoma): > 100 µM; TGI (SK-MEL-28 melanoma): > 100 µM; GI50 (SK-MEL-5 melanoma): > 100 µM; TGI (SK-MEL-5 melanoma): > 100 µM; GI50 (SK-OV-3 ovarian): > 100 µM; TGI (SK-OV-3 ovarian): > 100 µM; GI50 (SN12C renal): > 100 µM; TGI (SN12C renal): > 100 µM; GI50 (SNB-19 CNS): > 100 µM; TGI (SNB-19 CNS): > 100 µM; GI50 (SNB-75 CNS): > 100 µM; TGI (SNB-75 CNS): > 100 µM; GI50 (SR leukemia): > 100 µM; TGI (SR leukemia): > 100 µM; GI50 (SW-620 colon): > 100 µM; TGI (SW-620 colon): > 100 µM; GI50 (T-47D breast): > 100 µM; TGI (T-47D breast): > 100 µM; GI50 (TK-10 renal): > 100 µM; TGI (TK-10 renal): > 100 µM; GI50 (U251 CNS): > 100 µM; TGI (U251 CNS): > 100 µM; GI50 (UACC-62 melanoma): > 100 µM; TGI (UACC-62 melanoma): > 100 µM; GI50 (UO-31 renal): > 100 µM; TGI (UO-31 renal): > 100 µM

Which results are given for `OC1CCN(c2c3ccccc3nc3ccccc23)CC1`?
TGI (786-0 renal): > 100 µM; TGI (A498 renal): 35.6 µM; TGI (A549 NSCLC): > 100 µM; TGI (ACHN renal): 26.4 µM; TGI (BT-549 breast): 41.1 µM; TGI (CAKI-1 renal): 50.5 µM; TGI (COLO 205 colon): 9.45 µM; TGI (DU-145 prostate): > 100 µM; TGI (EKVX NSCLC): > 100 µM; TGI (HCT-116 colon): > 100 µM; TGI (HCT-15 colon): 39.7 µM; TGI (HL-60(TB) leukemia): > 100 µM; TGI (HOP-62 NSCLC): > 100 µM; TGI (HOP-92 NSCLC): > 100 µM; TGI (HS 578T breast): > 100 µM; TGI (HT29 colon): 5.44 µM; TGI (IGROV1 ovarian): 40.6 µM; TGI (K-562 leukemia): > 100 µM; TGI (KM12 colon): > 100 µM; TGI (LOX IMVI melanoma): > 100 µM; TGI (M14 melanoma): > 100 µM; TGI (MALME-3M melanoma): 36.9 µM; TGI (MCF7 breast): 10.3 µM; TGI (MDA-MB-231 breast): 84.9 µM; TGI (MDA-MB-435): 54.9 µM; TGI (MOLT-4 leukemia): > 100 µM; TGI (NCI-H226 lung): > 100 µM; TGI (NCI-H23 lung): > 100 µM; TGI (NCI-H460 lung): 50.9 µM; TGI (NCI-H522 lung): 7.42 µM; TGI (NCI/ADR-RES ovarian): > 100 µM; TGI (OVCAR-3 ovarian): > 100 µM; TGI (OVCAR-4 ovarian): 36.6 µM; TGI (OVCAR-5 ovarian): > 100 µM; TGI (OVCAR-8 ovarian): 79 µM; TGI (PC-3 prostate): > 100 µM; TGI (RPMI-8226 leukemia): > 100 µM; TGI (RXF 393 renal): 17.5 µM; TGI (SF-268 CNS): 34 µM; TGI (SF-295 CNS): 72.9 µM; TGI (SF-539 CNS): > 100 µM; TGI (SK-MEL-2 melanoma): 27.6 µM; TGI (SK-MEL-28 melanoma): 5.52 µM; TGI (SK-MEL-5 melanoma): 35.6 µM; TGI (SK-OV-3 ovarian): 82.7 µM; TGI (SN12C renal): > 100 µM; TGI (SNB-19 CNS): 75 µM; TGI (SNB-75 CNS): 44.7 µM; TGI (SR leukemia): > 100 µM; TGI (SW-620 colon): > 100 µM; TGI (T-47D breast): 4.78 µM; TGI (TK-10 renal): 22.1 µM; TGI (U251 CNS): 51.1 µM; TGI (UACC-257 melanoma): 40.8 µM; TGI (UACC-62 melanoma): 99.3 µM
